# Experimental data taken from patent publication US8455665B2, “3-phenoxymethylpyrrolidine compounds” (Theravance, Inc., priority 2009, dated 2013).
# pIC50: −log10 of the molar value. Read-outs that look alike come from different tables or passages of the source. Marks after values point to notes of the source that are not given here.
# Legend:
# [1] = target: NET (Homo sapiens, UniProt P23975); assay: fluorescence-based norepinephrine uptake assay (Tsuruda et al. 2010); assay type: cell-based; settings: for NET pIC50 / IC50: norepinephrine reuptake inhibition, fluorescence-based assay (data indicated by an asterisk); for IC50: read-out: NET pIC50 (converted)
# [2] = target: SERT (Homo sapiens, UniProt P31645); assay: fluorescence-based serotonin uptake assay (Tsuruda et al. 2010); assay type: cell-based; settings: for SERT pIC50 / IC50: serotonin reuptake inhibition, fluorescence-based assay (data indicated by an asterisk); for IC50: read-out: SERT pIC50 (converted)
# SERT, sequence (P31645 whole entry, species assumed): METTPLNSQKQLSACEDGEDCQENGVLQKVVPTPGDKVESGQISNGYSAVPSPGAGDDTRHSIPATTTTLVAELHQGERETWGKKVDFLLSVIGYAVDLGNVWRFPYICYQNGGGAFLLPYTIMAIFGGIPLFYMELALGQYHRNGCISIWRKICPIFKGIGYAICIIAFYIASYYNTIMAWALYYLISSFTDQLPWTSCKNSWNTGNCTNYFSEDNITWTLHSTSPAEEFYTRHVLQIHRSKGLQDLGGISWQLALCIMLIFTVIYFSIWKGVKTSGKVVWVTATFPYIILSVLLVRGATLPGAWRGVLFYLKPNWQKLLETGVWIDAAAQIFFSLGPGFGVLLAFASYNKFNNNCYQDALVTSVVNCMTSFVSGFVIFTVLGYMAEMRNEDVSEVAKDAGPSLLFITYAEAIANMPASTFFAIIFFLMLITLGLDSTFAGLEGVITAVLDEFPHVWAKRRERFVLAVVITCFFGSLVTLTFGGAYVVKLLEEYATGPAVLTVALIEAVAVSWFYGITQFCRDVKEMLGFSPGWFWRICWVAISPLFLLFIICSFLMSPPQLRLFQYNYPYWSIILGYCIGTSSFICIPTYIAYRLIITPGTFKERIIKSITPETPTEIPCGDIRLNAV
# NET, sequence (P23975 whole entry): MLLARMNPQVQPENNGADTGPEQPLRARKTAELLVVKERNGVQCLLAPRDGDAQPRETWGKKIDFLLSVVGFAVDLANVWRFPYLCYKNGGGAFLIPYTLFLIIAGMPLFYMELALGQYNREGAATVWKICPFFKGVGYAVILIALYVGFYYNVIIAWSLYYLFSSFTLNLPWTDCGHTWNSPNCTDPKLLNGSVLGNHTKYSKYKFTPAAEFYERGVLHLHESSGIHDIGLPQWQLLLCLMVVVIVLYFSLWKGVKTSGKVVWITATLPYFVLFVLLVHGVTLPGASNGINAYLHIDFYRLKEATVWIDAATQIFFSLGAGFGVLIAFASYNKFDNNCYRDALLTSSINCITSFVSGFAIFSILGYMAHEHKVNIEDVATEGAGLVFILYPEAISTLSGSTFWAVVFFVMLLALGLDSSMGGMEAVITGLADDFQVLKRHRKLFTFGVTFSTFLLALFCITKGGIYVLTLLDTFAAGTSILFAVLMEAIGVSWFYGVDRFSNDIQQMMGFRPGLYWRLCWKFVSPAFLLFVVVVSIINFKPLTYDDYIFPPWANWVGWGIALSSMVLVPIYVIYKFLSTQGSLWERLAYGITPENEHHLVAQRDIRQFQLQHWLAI
IC50 [1],IC50 [2],Structure (SMILES),NET pIC50 [1],SERT pIC50 [2],also measured
≤ 10 nM,≤ 10 nM,"CC(C)SC[C@H](Oc1cccc(F)c1Cl)[C@H]1CCNC1 [Example 19-3, (S)-3-[(R)-1-(2-Chloro-3-fluorophenoxy)-2-isopropylsulfanylethyl]pyrrolidine]",–,–,–
≤ 10 nM,≤ 10 nM,"Clc1cccc(OC(COCc2ccccc2)C2CCNC2)c1Cl [Example 10-2, ((S)-3-[(R)-2-Benzyloxy-1-(2,3-dichlorophenoxy)ethyl]pyrrolidine]",–,–,–
≤ 10 nM,≤ 10 nM,"CC(C)SC[C@@H](Oc1cccc(Cl)c1Cl)[C@H]1CCNC1 [Example 19-2, (S)-3-[(S)-1-(2,3-Dichlorophenoxy)-2-isopropylsulfanylethyl]pyrrolidine]",–,–,–
≤ 100 nM,≤ 10 nM,"Clc1ccc(OC(COCc2ccccc2)C2CCNC2)c(Cl)c1 [Example 10-3, ((S)-3-[(R)-2-Benzyloxy-1-(2,4-dichlorophenoxy)ethyl]pyrrolidine]",–,–,–
≤ 100 nM,≤ 10 nM,"CC(C)SC[C@@H](Oc1ccc(Cl)cc1Cl)[C@H]1CCNC1 [Example 19-5, (S)-3-[(S)-1-(2,4-Dichlorophenoxy)-2-isopropylsulfanylethyl]pyrrolidine]",–,–,–
≤ 10 nM,≤ 10 nM,"CC(C)SC[C@@H](Oc1cccc(F)c1Cl)[C@H]1CCNC1 [Example 19-4, (S)-3-[(S)-1-(2-Chloro-3-fluorophenoxy)-2-isopropylsulfanylethyl]pyrrolidine]",–,–,–

# Continued, compound first:
Structure (SMILES),IC50 [1],IC50 [2],NET pIC50 [1],SERT pIC50 [2],also measured
Clc1ccccc1O[C@@H](COCc1ccccc1)[C@H]1CCNC1 [Example 10-1],–,–,≧8.0*,≧7.0*,–
"CCOC[C@H](Oc1cccc(Cl)c1C)[C@H]1CCNC1 [Example 7-13, (S)-3-[(R)-1-(3-Chloro-2-methylphenoxy)-2-ethoxyethyl]pyrrolidine]",≤ 10 nM,≤ 10 nM,–,–,–
"CCOC[C@@H](Oc1ccc(C#N)c(Cl)c1)[C@@H]1CCNC1 (stereo in doubt) [Example 7-25, 2-Chloro-4-((R)-2-ethoxy-1-(S)-pyrrolidin-3-ylethoxy)benzonitrile]",–,–,–,–,pIC50 [1]: ≥ 7.00; pIC50 [2]: ≥ 8.00
"CC(C)OC[C@@H](Oc1c(Cl)cccc1Cl)[C@H]1CCNC1 [Example 9-28, (S)-3-[(S)-1-(2,6-Dichlorophenoxy)-2-isopropoxyethyl]pyrrolidine]",≤ 10 nM,≤ 100 nM,–,–,–
CCSC[C@H](Oc1ccc(Cl)cc1C(F)(F)F)[C@H]1CCNC1.O=C(O)C(F)(F)F [Example 17-13],–,–,≧8.0*,≧8.0*,–
"CCOC[C@H](Oc1ccc(Cl)c(Cl)c1)[C@H]1CCNC1 [Example 7-24, (S)-3-[(R)-1-(3,4-Dichlorophenoxy)-2-ethoxyethyl]pyrrolidine]",≤ 100 nM,≤ 10 nM,–,–,–
"CCOC[C@H](Oc1c(Cl)ccc(Cl)c1F)[C@H]1CCNC1 [Example 7-32, (S)-3-[(R)-1-(3,6-Dichloro-2-fluorophenoxy)-2-ethoxyethyl]pyrrolidine]",≤ 10 nM,≤ 100 nM,–,–,–
CCSC[C@H](Oc1ccc(Cl)cc1Cl)[C@H]1CCNC1.O=C(O)C(F)(F)F [Example 17-7],–,–,≧8.0*,≧8.0*,–
CCSC[C@@H](Oc1cccc(C(F)(F)F)c1)[C@H]1CCNC1.O=C(O)C(F)(F)F [Example 17-12],–,–,≧7.0*,≧8.0*,–
"Cc1c(Cl)cccc1O[C@@H](COC(C)C)[C@H]1CCNC1 [Example 9-16, (S)-3-[(R)-1-(3-Chloro-2-methylphenoxy)-2-isopropoxyethyl]pyrrolidine]",≤ 10 nM,≤ 10 nM,–,–,–
Cc1cc(Cl)ccc1O[C@@H](COCc1ccccc1)[C@H]1CCNC1.O=C(O)C(F)(F)F [Prep 3],–,–,≧8.0*,≧8.0*,–
"CC(C)SC[C@H](Oc1cccc(Cl)c1C(F)(F)F)[C@H]1CCNC1 [Example 18, (S)-3-[(R)-1-(3-Chloro-2-trifluoromethylphenoxy)-2-isopropylsulfanylethyl]pyrrolidine]",≤ 10 nM,≤ 10 nM,–,–,–
CCSC[C@@H](Oc1cccc(Cl)c1C)[C@H]1CCNC1.O=C(O)C(F)(F)F [Example 17-6],–,–,≧8.0*,≧8.0*,–
"CCOC[C@H](Oc1ccc(Cl)c(Cl)c1F)[C@H]1CCNC1 [Example 7-29, (S)-3-[(R)-1-(3,4-Dichloro-2-fluorophenoxy)-2-ethoxyethyl]pyrrolidine]",≤ 10 nM,≤ 10 nM,–,–,–
"OC[C@@H](Oc1cccc(Cl)c1Cl)[C@@H]1CCNC1 (stereo in doubt) [Example 2-2, (R)-2-(2,3-Dichlorophenoxy)-2-(S)-pyrrolidin-3-yl-ethanol]",≤ 10 nM,≤ 100 nM,–,–,–
"CCOC[C@H](Oc1cccc(F)c1Cl)[C@H]1CCNC1 [Example 7-9, (S)-3-[(R)-1-(2-Chloro-3-fluorophenoxy)-2-ethoxyethyl]pyrrolidine]",≤ 10 nM,≤ 100 nM,–,–,–
"CC(C)OC[C@H](Oc1cccc(C(F)(F)F)c1)[C@H]1CCNC1 [Example 9-4, (S)-3-[(R)-2-Isopropoxy-1-(3-trifluoromethylphenoxy)ethyl]pyrrolidine]",≤ 100 nM,≤ 100 nM,–,–,–
CCSC[C@@H](Oc1ccc(Cl)cc1Cl)[C@H]1CCNC1.O=C(O)C(F)(F)F [Example 17-8],–,–,≧8.0*,≧8.0*,–
CSC[C@@H](Oc1cccc(Cl)c1C(F)(F)F)[C@H]1CCNC1.O=C(O)C(F)(F)F [Example 15-8],–,–,≧7.0*,≧8.0*,–
"CC(C)OC[C@H](Oc1c(Cl)cccc1Cl)[C@H]1CCNC1 [Example 9-29, (S)-3-[(R)-1-(2,6-Dichlorophenoxy)-2-isopropoxyethyl]pyrrolidine]",≤ 10 nM,≤ 100 nM,–,–,–

Structure (SMILES),IC50 [1],IC50 [2],NET pIC50 [1],SERT pIC50 [2],also measured
"CCOC[C@@H](Oc1cccc(Cl)c1C)[C@H]1CCNC1 [Example 7-14, (S)-3-[(S)-1-(3-Chloro-2-methylphenoxy)-2-ethoxyethyl]pyrrolidine]",≤ 10 nM,≤ 10 nM,–,–,–
"CC(C)OC[C@H](Oc1cccc(F)c1Cl)[C@H]1CCNC1 [Example 9-12, (S)-3-[(R)-1-(2-Chloro-3-fluorophenoxy)-2-isopropoxyethyl]pyrrolidine]",≤ 10 nM,≤ 10 nM,–,–,–
"CCOC[C@H](Oc1ccc(Cl)cc1F)[C@H]1CCNC1 [Example 7-21, (S)-3-[(R)-1-(4-Chloro-2-fluorophenoxy)-2-ethoxyethyl]pyrrolidine]",≤ 10 nM,≤ 10 nM,–,–,–
CCSC[C@H](Oc1cccc(Cl)c1C)[C@H]1CCNC1.O=C(O)C(F)(F)F [Example 17-5],–,–,≧8.0*,≧8.0*,–
CSC[C@H](Oc1cccc(Cl)c1C(F)(F)F)[C@H]1CCNC1.O=C(O)C(F)(F)F [Example 15-7],–,–,≧8.0*,≧8.0*,–
CSC[C@@H](Oc1cccc(F)c1Cl)[C@H]1CCNC1.O=C(O)C(F)(F)F [Example 15-4],–,–,≧8.0*,≧8.0*,–
"CCOC[C@H](Oc1cccc(Cl)c1C(F)(F)F)[C@H]1CCNC1 [Example 7-15, (S)-3-[(R)-1-(3-Chloro-2-trifluoromethylphenoxy)-2-ethoxyethyl]pyrrolidine]",≤ 10 nM,≤ 10 nM,–,–,–
CSC[C@@H](Oc1cccc(C(F)(F)F)c1)[C@H]1CCNC1.O=C(O)C(F)(F)F [Example 15-10],–,–,≧7.0*,≧7.0*,–
"CCOC[C@H](Oc1ccccc1Cl)[C@H]1CCNC1 [Example 7-1, (S)-3-[(R)-1-(2-Chlorophenoxy)-2-ethoxyethyl]pyrrolidine]",≤ 10 nM,≤ 100 nM,–,–,–
CSC[C@@H](Oc1cccc(Cl)c1Cl)[C@H]1CCNC1.O=C(O)C(F)(F)F [Example 15-2],–,–,≧8.0*,≧8.0*,–
"CC(C)OC[C@@H](Oc1cccc(C(F)(F)F)c1)[C@H]1CCNC1 [Example 9-3, (S)-3-[(S)-2-Isopropoxy-1-(3-trifluoromethylphenoxy)ethyl]pyrrolidine]",≤ 100 nM,≤ 10 nM,–,–,–
"CCOC[C@H](Oc1ccc(C(F)(F)F)cc1)[C@H]1CCNC1 [Example 7-6, (S)-3-[(R)-2-Ethoxy-1-(4-trifluoromethylphenoxy)ethyl]pyrrolidine]",≤ 100 nM,≤ 10 nM,–,–,–
"CCSC[C@H](Oc1cccc(Cl)c1C(F)(F)F)[C@H]1CCNC1 [Example 16, (S)-3-[(R)-1-(3-Chloro-2-trifluoromethylphenoxy)-2-ethylsulfanylethyl]-pyrrolidine]",≤ 10 nM,≤ 10 nM,–,–,–
"CCOC[C@H](Oc1c(Cl)cc(F)cc1Cl)[C@H]1CCNC1 [Example 7-31, (S)-3-[(R)-1-(2,6-Dichloro-4-fluorophenoxy)-2-ethoxyethyl]pyrrolidine]",≤ 10 nM,≤ 100 nM,–,–,–
CCSC[C@H](Oc1cccc(Cl)c1Cl)[C@H]1CCNC1.O=C(O)C(F)(F)F [Example 17-1],–,–,≧8.0*,≧8.0*,–
"CCOC[C@H](Oc1ccc(Cl)cc1C)[C@H]1CCNC1 [Example 7-22, (S)-3-[(R)-1-(4-Chloro-2-methylphenoxy)-2-ethoxyethyl]pyrrolidine]",≤ 10 nM,≤ 10 nM,–,–,–
"CCOC[C@H](Oc1ccc(F)cc1)[C@H]1CCNC1 [Example 7-5, (S)-3-[(R)-2-Ethoxy-1-(4-fluorophenoxy)ethyl]pyrrolidine]",≤ 100 nM,≤ 100 nM,–,–,–
"CCOC[C@H](Oc1ccc(C(F)(F)F)cc1Cl)[C@H]1CCNC1 [Example 7-19, (S)-3-[(R)-1-(2-Chloro-4-trifluoromethylphenoxy)-2-ethoxyethyl]pyrrolidine]",≤ 10 nM,≤ 10 nM,–,–,–
"CSC[C@H](Oc1ccc(Cl)cc1C)[C@H]1CCNC1 [Example 14, (S)-3-[(R)-1-(4-Chloro-2-methylphenoxy)-2-methylsulfanylethyl]pyrrolidine]",≤ 10 nM,≤ 10 nM,–,–,–
"CCOC[C@H](Oc1ccc(Cl)cc1Cl)[C@H]1CCNC1 [Example 6, (S)-3-[(R)-1-(2,4-Dichlorophenoxy)-2-ethoxyethyl]pyrrolidine]",≤ 10 nM,≤ 10 nM,–,–,–
